Where two headings read alike, the source gives them in different places.
Columns and labels:
[1] = Comparative biodistribution in rats; assay type: in vivo; conditions: for hepatobiliary accumulation: conclusion from biodistribution in rats or mice or scintigraphic experiments on dog; for Blood, percent dose per organ / Intestine, percent dose per organ / Kidney, percent dose per organ / Liver, percent dose per organ / Urine, percent dose per organ: rat
Procedure: (§1) Biological evaluation of technetium-99m diethylenie triamine pentaacetic acid diester by comparative biodistribution with iodine-131 orthoiodo-hippurate and technetium-99m mercaptoacetylglycylglycylglyciine.
(§2) The comparative biodistribution experiment was undertaken in mice and rats. In mice either technetium-99m diethylene triamine pentaacetic acid diester or technetium-99m mercaptoacetylglycylglycylglycine were injected via the tail vein along with iodine-131 orthoiodo-hippurate. Rats were anaesthetised with urethane and the above radiochemicals were injected via the femoral vein. After predetermined time interval the animals were sacrificed and the organs were taken in the counting vial. Considerable care were exercised not to loose any urine during the process.

[2] = Comparative biodistribution in mice; assay type: in vivo
Procedure: as §1, §2

[3] = Renal plasma clearance in rats, single injection method; assay type: in vivo; conditions: plasma samples at 20 and 30 min, single compartment model
Procedure: (§3) Renal plasma clearance of technetium-99m diethylene triamine pentaacetic acid dimethyl ester was studied in rats by single injection method. Two plasma samples were collected at 20 and 30 min time point. The clearance was calculated using a single compartment model. Iodine-131 orthoiodo-hippurate was coinjected as standard. This experiment was also performed with technetium-99m mercaptoacetylglycylglycylglycine. […] The corresponding values in dog (10-12 kg) for technetiumn-99m diethylene triamine pentaacetic acid dimethyl ester and technetium-99m mercaptoacetylglycylglycylglycine along with coinjected hippurate were 72, 80 and 157 ml/min. These values are much higher than technetium-99m diethylene triamine pentaacetic acid in rats (0.82 ml/min 100 g) or dogs (43 ml/min).

[4] = assay type: in vivo; conditions: dog (10-12 kg)
Procedure: as §3

[5] = cited from earlier work; for Renal extraction: background comparison of MAG3 with iodine-131 orthoiodo-hippurate; for extraction efficiency: background statement
[6] = background statement; cited from earlier work
[7] = background statement; cited from earlier work; remark: listed apart in the source

For “technetium-99m mercaptoacetylglycylglycylglycine [compound 3]”, the hepatobiliary accumulation [1] was “appreciable amount”, the “Blood, percent dose per organ” value ([1]; 10 min post-injection) was 4.22 ± 0.40 percent dose per organ and the “Intestine, percent dose per organ” value ([1]; 10 min post-injection) was 4.94 ± 1.39 percent dose per organ. For the same compound, the “Kidney, percent dose per organ” value ([1]; 10 min post-injection) was 8.51 ± 1.54 percent dose per organ, the “Liver, percent dose per organ” value ([1]; 10 min post-injection) was 3.37 ± 0.76 percent dose per organ and the “Urine, percent dose per organ” value ([1]; 10 min post-injection) was 33.15 ± 6.30 percent dose per organ. For the same compound, the “Blood, percent dose per organ” value ([1]; 30 min post-injection) was 2.31 ± 0.24 percent dose per organ, the “Intestine, percent dose per organ” value ([1]; 30 min post-injection) was 10.12 ± 0.88 percent dose per organ and the “Kidney, percent dose per organ” value ([1]; 30 min post-injection) was 2.99 ± 0.96 percent dose per organ. For the same compound, the “Liver, percent dose per organ” value ([1]; 30 min post-injection) was 4.48 ± 1.48 percent dose per organ, the “Urine, percent dose per organ” value ([1]; 30 min post-injection) was 63.50 percent dose per organ and the “Blood, percent dose per organ” value ([2]; 10 min post-injection) was 6.60 ± 2.37 percent dose per organ. The “Intestine, percent dose per organ” value ([2]; 10 min post-injection) was 3.31 ± 0.40 percent dose per organ, the “Kidney, percent dose per organ” value ([2]; 10 min post-injection) was 4.32 ± 0.15 percent dose per organ and the “Liver, percent dose per organ” value ([2]; 10 min post-injection) was 7.07 ± 0.82 percent dose per organ. The “Urine, percent dose per organ” value ([2]; 10 min post-injection) was 48.34 ± 2.36 percent dose per organ, the “Blood, percent dose per organ” value ([2]; 30 min post-injection) was 1.23 ± 0.26 percent dose per organ and the “Intestine, percent dose per organ” value ([2]; 30 min post-injection) was 5.82 ± 0.60 percent dose per organ. For the same compound, the “Kidney, percent dose per organ” value ([2]; 30 min post-injection) was 1.12 ± 0.25 percent dose per organ, the “Liver, percent dose per organ” value ([2]; 30 min post-injection) was 4.36 ± 0.43 percent dose per organ and the “Urine, percent dose per organ” value ([2]; 30 min post-injection) was 70.99 percent dose per organ. The Renal plasma clearance [3] was 1.45 ml/min/100 g, the Renal plasma clearance [4] was 80 mL/min and the Renal extraction [5] was 53%. For the same compound, the protein binding [6] was 77% and the “accumulation in hepatobiliary system” value [7] was “Unwanted accumulation in hepatobiliary system is observed”.

With “technetium-99m diethylene triamine pentaacetic acid dimethyl ester [compound 2]” the hepatobiliary accumulation [1] was “no hepatobiliary accumulation”, the “Blood, percent dose per organ” value ([1]; 10 min post-injection) was 8.26 ± 0.75 percent dose per organ and the “Intestine, percent dose per organ” value ([1]; 10 min post-injection) was 2.19 ± 0.41 percent dose per organ. The “Kidney, percent dose per organ” value ([1]; 10 min post-injection) was 3.21 ± 0.29 percent dose per organ, the “Liver, percent dose per organ” value ([1]; 10 min post-injection) was 2.14 ± 0.41 percent dose per organ and the “Urine, percent dose per organ” value ([1]; 10 min post-injection) was 30.94 ± 3.40 percent dose per organ. For the same compound, the “Blood, percent dose per organ” value ([1]; 30 min post-injection) was 3.49 ± 0.36 percent dose per organ, the “Intestine, percent dose per organ” value ([1]; 30 min post-injection) was 1.53 ± 0.10 percent dose per organ and the “Kidney, percent dose per organ” value ([1]; 30 min post-injection) was 1.47 ± 0.41 percent dose per organ. For the same compound, the “Liver, percent dose per organ” value ([1]; 30 min post-injection) was 0.91 ± 0.03 percent dose per organ, the “Urine, percent dose per organ” value ([1]; 30 min post-injection) was 64.20 percent dose per organ and the “Blood, percent dose per organ” value ([2]; 10 min post-injection) was 7.27 ± 2.41 percent dose per organ. The “Intestine, percent dose per organ” value ([2]; 10 min post-injection) was 3.40 ± 0.25 percent dose per organ, the “Kidney, percent dose per organ” value ([2]; 10 min post-injection) was 3.36 ± 0.98 percent dose per organ and the “Liver, percent dose per organ” value ([2]; 10 min post-injection) was 1.65 ± 0.11 percent dose per organ. The “Urine, percent dose per organ” value ([2]; 10 min post-injection) was 46.39 ± 3.67 percent dose per organ, the “Blood, percent dose per organ” value ([2]; 30 min post-injection) was 1.51 ± 0.53 percent dose per organ and the “Intestine, percent dose per organ” value ([2]; 30 min post-injection) was 1.67 ± 0.91 percent dose per organ. For the same compound, the “Kidney, percent dose per organ” value ([2]; 30 min post-injection) was 1.28 ± 0.52 percent dose per organ, the “Liver, percent dose per organ” value ([2]; 30 min post-injection) was 1.22 ± 0.25 percent dose per organ and the “Urine, percent dose per organ” value ([2]; 30 min post-injection) was 73.23 percent dose per organ. It also gave a Renal plasma clearance [3] of 1.39 ml/min/100 g and a Renal plasma clearance [4] of 72 mL/min.

In the case of `O=C(O)CNC(=O)c1ccccc1[131I]` [compound 1, Iodine-131 orthoiodo-hippurate], the “Blood, percent dose per organ” value ([1]; 10 min post-injection) is reported as 5.61 ± 0.87 percent dose per organ, the “Intestine, percent dose per organ” value ([1]; 10 min post-injection) is reported as 2.12 ± 0.41 percent dose per organ and the “Kidney, percent dose per organ” value ([1]; 10 min post-injection) is reported as 3.72 ± 0.77 percent dose per organ. For the same compound, the “Liver, percent dose per organ” value ([1]; 10 min post-injection) was 3.29 ± 1.14 percent dose per organ, the “Urine, percent dose per organ” value ([1]; 10 min post-injection) was 48.92 ± 1.54 percent dose per organ and the “Blood, percent dose per organ” value ([1]; 30 min post-injection) was 1.47 ± 0.28 percent dose per organ. The “Intestine, percent dose per organ” value ([1]; 30 min post-injection) was 1.92 ± 0.39 percent dose per organ, the “Kidney, percent dose per organ” value ([1]; 30 min post-injection) was 0.94 ± 0.20 percent dose per organ and the “Liver, percent dose per organ” value ([1]; 30 min post-injection) was 0.80 ± 0.12 percent dose per organ. The “Urine, percent dose per organ” value ([1]; 30 min post-injection) was 79.80 percent dose per organ, the “Blood, percent dose per organ” value ([2]; 10 min post-injection) was 3.00 ± 1.29 percent dose per organ and the “Intestine, percent dose per organ” value ([2]; 10 min post-injection) was 2.16 ± 0.28 percent dose per organ. The “Kidney, percent dose per organ” value ([2]; 10 min post-injection) was 2.57 ± 1.05 percent dose per organ, the “Liver, percent dose per organ” value ([2]; 10 min post-injection) was 2.47 ± 0.26 percent dose per organ and the “Urine, percent dose per organ” value ([2]; 10 min post-injection) was 64.85 ± 2.74 percent dose per organ. For the same compound, the “Blood, percent dose per organ” value ([2]; 30 min post-injection) was 1.41 ± 0.72 percent dose per organ, the “Intestine, percent dose per organ” value ([2]; 30 min post-injection) was 1.21 ± 0.47 percent dose per organ and the “Kidney, percent dose per organ” value ([2]; 30 min post-injection) was 0.59 ± 0.30 percent dose per organ. For the same compound, the “Liver, percent dose per organ” value ([2]; 30 min post-injection) was 0.90 ± 0.14 percent dose per organ, the “Urine, percent dose per organ” value ([2]; 30 min post-injection) was 80.38 percent dose per organ and the Renal plasma clearance [3] was 2.68 ml/min/100 g. For the same compound, the Renal plasma clearance [4] was 157 mL/min, the Renal extraction [5] was 79% and the protein binding [6] was 32%.

In the case of `O=C(O)CNC(=O)c1ccccc1I` [Orthoiodo-hippurate], the extraction efficiency [5] is listed as 87%.

With “Technetium-99m diethylene triamine pentaacetic acid [compound 4]” the “Blood, percent dose per organ” value ([1]; 10 min post-injection) was 19.06 ± 2.37 percent dose per organ, the “Intestine, percent dose per organ” value ([1]; 10 min post-injection) was 3.65 ± 2.05 percent dose per organ and the “Kidney, percent dose per organ” value ([1]; 10 min post-injection) was 5.13 ± 1.00 percent dose per organ. The “Liver, percent dose per organ” value ([1]; 10 min post-injection) was 4.91 ± 1.18 percent dose per organ, the “Urine, percent dose per organ” value ([1]; 10 min post-injection) was 21.23 ± 1.61 percent dose per organ and the “Blood, percent dose per organ” value ([1]; 30 min post-injection) was 7.08 ± 1.50 percent dose per organ. The “Intestine, percent dose per organ” value ([1]; 30 min post-injection) was 6.43 ± 1.42 percent dose per organ, the “Kidney, percent dose per organ” value ([1]; 30 min post-injection) was 2.78 ± 1.00 percent dose per organ and the “Liver, percent dose per organ” value ([1]; 30 min post-injection) was 3.30 ± 0.79 percent dose per organ. For the same compound, the “Urine, percent dose per organ” value ([1]; 30 min post-injection) was 43.32 percent dose per organ, the “Blood, percent dose per organ” value ([2]; 10 min post-injection) was 14.66 ± 3.33 percent dose per organ and the “Intestine, percent dose per organ” value ([2]; 10 min post-injection) was 2.71 ± 0.20 percent dose per organ. For the same compound, the “Kidney, percent dose per organ” value ([2]; 10 min post-injection) was 2.57 ± 0.30 percent dose per organ, the “Liver, percent dose per organ” value ([2]; 10 min post-injection) was 2.57 ± 0.47 percent dose per organ and the “Urine, percent dose per organ” value ([2]; 10 min post-injection) was 35.48 ± 2.92 percent dose per organ. The “Blood, percent dose per organ” value ([2]; 30 min post-injection) was 5.55 ± 1.22 percent dose per organ, the “Intestine, percent dose per organ” value ([2]; 30 min post-injection) was 3.12 ± 0.85 percent dose per organ and the “Kidney, percent dose per organ” value ([2]; 30 min post-injection) was 1.08 ± 0.03 percent dose per organ. For the same compound, the “Liver, percent dose per organ” value ([2]; 30 min post-injection) was 1.02 ± 0.30 percent dose per organ, the “Urine, percent dose per organ” value ([2]; 30 min post-injection) was 60.15 percent dose per organ and the Renal plasma clearance [3] was 0.82 ml/min/100 g. For the same compound, the Renal plasma clearance [4] was 43 mL/min and the extraction efficiency [5] was 20%.
